The values that follow come from paper PMC9484358 (Archives of Pharmacal Research, 2022).

For this test, the system named is SARS-CoV-2 spike pseudovirus. Briefly: organism not typed. The class given is cell-based.

In general, IC50 refers to the concentration that gives 50% inhibition. In the case of `Cc1cc(-c2ccc(/N=N/c3ccc4c(S(=O)(=O)O)cc(S(=O)(=O)O)c(N)c4c3O)c(C)c2)ccc1/N=N/c1ccc2c(S(=O)(=O)O)cc(S(=O)(=O)O)c(N)c2c1O` [Evans blue], under “read-out: IC50 value”, the IC50 came to 26.9 µM.
One may read the inhibition as how much of the control response was suppressed. Take `CC1(C)[C@@H](O[C@H]2O[C@H](C(=O)O)[C@@H](O)[C@H](O)[C@H]2O[C@@H]2O[C@H](C(=O)O)[C@@H](O)[C@H](O)[C@H]2O)CC[C@]2(C)[C@H]3C(=O)C=C4[C@@H]5C[C@@](C)(C(=O)O)CC[C@]5(C)CC[C@@]4(C)[C@]3(C)CC[C@@H]12` [Glycyrrhizic acid]: for the setting “read-out: Inhibition rate (%), 50 µM”, the inhibition at 50 µM is 4.01 ± 7.03%. For the same compound, the inhibition at 100 µM (read-out: Inhibition rate (%), 100 µM) came to 11.2 ± 6.96%.
